Measurements as given in ChEMBL document CHEMBL4311994, “New 2,6-diaminopyridines containing a sterically hindered benzylphosphonate moiety in the aromatic core as potential antioxidant and anti-cancer drugs” (Eur J Med Chem, 2019).
The source made the active and inactive calls. The calls are words filed in the database; no cut-off is given here.

Assays:
[1] = Cytotoxicity against human Chang cells assessed as reduction in cell viability by fluorescence based viable cell counting method
[2] = tested on: M-HeLa; experiment: Antiproliferative activity against human M-HeLa cells by fluorescence based viable cell counting method; type: functional
[3] = Antioxidant activity assessed as ABAP free radical scavenging activity by measuring decrease in chemiluminescence intensity at 0.25 to 1 mM by luminescence based assay; type: functional
[4] = tested on: MCF7; experiment: Antiproliferative activity against human MCF7 cells by fluorescence based viable cell counting method; type: functional
[5] = Hemolytic activity in human erythrocytes at 10.0 +/- 0.8 uM incubated for 1 hrs by photometric analysis relative to control; type: ADME, cell-based, Erythrocyte; settings: read-out: Activity
[6] = tested on: Staphylococcus aureus; experiment: Antimicrobial activity against Staphylococcus aureus ATCC 209P by serial dilution method; type: functional
[7] = Hemolytic activity in human erythrocytes at 50.0 +/- 4.3 uM incubated for 1 hrs by photometric analysis relative to control; type: ADME, cell-based, Erythrocyte; settings: read-out: Activity
[8] = tested on: Escherichia coli; experiment: Antimicrobial activity against Escherichia coli CDC F-50 by serial dilution method; type: functional
[9] = Hemolytic activity in human erythrocytes at 100.0 +/- 7.8 uM incubated for 1 hrs by photometric analysis relative to control; type: ADME, cell-based, Erythrocyte; settings: read-out: Activity
[10] = tested on: Trichophyton mentagrophytes; experiment: Antimicrobial activity against Trichophyton mentagrophytes var. gypseum 1773 by serial dilution method; type: functional
[11] = tested on: Pseudomonas aeruginosa; experiment: Antimicrobial activity against Pseudomonas aeruginosa ATCC 9027 by serial dilution method; type: functional
[12] = tested on: Candida albicans; experiment: Antimicrobial activity against Candida albicans 855-653 by serial dilution method; type: functional
[13] = tested on: Bacillus cereus; experiment: Antimicrobial activity against Bacillus cereus ATCC 8035 by serial dilution method; type: functional
[14] = tested on: Aspergillus niger; experiment: Antimicrobial activity against Aspergillus niger BKMF 1119 by serial dilution method; type: functional
[15] = tested on: M-HeLa; experiment: Induction of apoptosis in human M-HeLa cells assessed as increase in caspase 9 expression at IC50 incubated for 24 hrs by luminescence based assay relative to control; type: functional
[16] = tested on: M-HeLa; experiment: Induction of apoptosis in human M-HeLa cells assessed as increase in bcl2 expression at IC50 incubated for 24 hrs by luminescence based assay; type: functional, cell-based
[17] = tested on: M-HeLa; experiment: Induction of apoptosis in human M-HeLa cells assessed as effect on Bad expression at IC50 incubated for 24 hrs by luminescence based assay; type: functional, cell-based
[18] = tested on: M-HeLa; experiment: Induction of apoptosis in human M-HeLa cells assessed as increase in caspase 8 expression at IC50 incubated for 24 hrs by luminescence based assay; type: functional, cell-based
[19] = tested on: M-HeLa; experiment: Induction of apoptosis in human M-HeLa cells assessed as increase in Akt expression at IC50 incubated for 24 hrs by luminescence based assay; type: functional, cell-based
[20] = tested on: M-HeLa; experiment: Induction of apoptosis in human M-HeLa cells assessed as increase in JNK expression at IC50 incubated for 24 hrs by luminescence based assay; type: functional, cell-based
[21] = tested on: M-HeLa; experiment: Induction of apoptosis in human M-HeLa cells assessed as increase in p53 expression at IC50 incubated for 24 hrs by luminescence based assay; type: functional, cell-based
[22] = tested on: A549; experiment: Antiproliferative activity against human A549 cells by fluorescence based viable cell counting method; type: functional
[23] = tested on: PC-3; experiment: Antiproliferative activity against human PC3 cells by fluorescence based viable cell counting method; type: functional
[24] = Homo sapiens, M-HeLa, read-out: IC50
[25] = Homo sapiens, MCF7, read-out: IC50

Structure (SMILES) | IC50 ([1]; Homo sapiens, read-out: IC50) [µM] | IC50 [2, 24] [µM] | Activity [3] | IC50 [4, 25] [µM] | hemolysis at 1 h, 10 uM [5] [%] | MIC [6] [µM] | hemolysis at 1 h, 50 uM [7] [%] | MIC [8] [µM] | hemolysis at 1 h, 100 uM [9] [%] | MIC [10] [µM] | MIC [11] [µM] | MIC [12] [µM] | MIC [13] [µM] | MIC [14] [µM] | other results
CC/C(=C(\c1ccccc1)c1ccc(OCCN(C)C)cc1)c1ccccc1 [TAMOXIFEN] | 42.1 |  |  |  |  |  |  |  |  |  |  |  |  |  | 
CC(C)(C)C1=CC(=CP(=O)(Oc2ccccc2)Oc2ccccc2)C=C(C(C)(C)C)C1=O | 17 | 14.3 | Active | 38.4 |  |  |  |  |  |  |  |  |  |  | 
CC(C)(C)c1cc(C(c2ccc(N)cc2N)P(=O)(Oc2ccccc2)Oc2ccccc2)cc(C(C)(C)C)c1O (centres undefined) |  |  | Active |  | 0 | > 500 | 0.9 | > 500 | 1.9 | > 500 | > 500 | > 500 | > 500 | > 500 | IC50 ([2]; m-hela): Nd(Toxic); IC50 [1]: Nd(Toxic); IC50 ([4]; mcf7): Nd(Toxic)
COP(=O)(C=C1C=C(C(C)(C)C)C(=O)C(C(C)(C)C)=C1)OC | 24.1 | 17.2 | Active | > 100 |  |  |  |  |  |  |  |  |  |  | 
COP(=O)(Cc1cc(C(C)(C)C)c(O)c(C(C)(C)C)c1)OC | > 100 | 26 | Active | > 100 | 0 |  | 0 |  | 0 |  |  |  |  |  | 
CC(C)(C)c1cc(C(c2ccc(N)nc2N)P(=O)(Oc2ccccc2)Oc2ccccc2)cc(C(C)(C)C)c1O (centres undefined) | 52 | 7.4 | Active | 16 | 0 | > 500 | 0.5 | > 500 | 1.9 | > 500 | > 500 | > 500 | > 500 | > 500 | fold change (FC) [15]: 2; Activity [16]: Active; Activity [17]: inactive; Activity [18]: inactive; Activity [19]: Active; Activity [20]: Active; Activity [21]: Active
COP(=O)(OC)C(c1cc(C(C)(C)C)c(O)c(C(C)(C)C)c1)c1ccc(N)cc1N (centres undefined) | > 100 | 45.3 | Active | > 100 | 0 | > 500 | 0 | > 500 | 0 | > 500 | > 500 | > 500 | > 500 | > 500 | 
COc1cccc2c1C(=O)c1c(O)c3c(c(O)c1C2=O)C[C@@](O)(C(=O)CO)C[C@@H]3O[C@H]1C[C@H](N)[C@H](O)[C@H](C)O1 [DOXORUBICIN] | 1.3 | 3 |  |  |  |  |  |  |  |  |  |  |  |  | 
CC(C)OP(=O)(C=C1C=C(C(C)(C)C)C(=O)C(C(C)(C)C)=C1)OC(C)C | 22.4 | 10.1 | Active | 66 |  |  |  |  |  |  |  |  |  |  | 
CCOP(=O)(OCC)C(c1cc(C(C)(C)C)c(O)c(C(C)(C)C)c1)c1ccc(N)cc1N (centres undefined) | 54.9 | 39 | Active | 68.2 | 0 | > 500 | 0 | > 500 | 0 | > 500 | > 500 | > 500 | > 500 | > 500 | 
CC(C)(C)c1cc(CP(=O)(Oc2ccccc2)Oc2ccccc2)cc(C(C)(C)C)c1O | 40 | 15.6 | Active | > 100 |  |  |  |  |  |  |  |  |  |  | 
CCOP(=O)(OCC)C(c1cc(C(C)(C)C)c(O)c(C(C)(C)C)c1)c1ccc(N)nc1N (centres undefined) | > 100 | 17.1 | Active | 34.2 | 0 | > 500 | 0 | > 500 | 0 | > 500 | > 500 | > 500 | > 500 | > 500 | 
CC(C)OP(=O)(OC(C)C)C(c1cc(C(C)(C)C)c(O)c(C(C)(C)C)c1)c1ccc(N)nc1N (centres undefined) | > 100 | 38 | Active | 21.8 | 0 | > 500 | 0 | > 500 | 0.3 | > 500 | > 500 | > 500 | > 500 | > 500 | 
CCCOP(=O)(OCCC)C(c1cc(C(C)(C)C)c(O)c(C(C)(C)C)c1)c1ccc(N)nc1N (centres undefined) | 28.1 | 11.1 | Active | 32.3 |  |  |  |  |  |  |  |  |  |  | 
CC(C)OP(=O)(Cc1cc(C(C)(C)C)c(O)c(C(C)(C)C)c1)OC(C)C | 96 | 30 | Active | 68.2 |  |  |  |  |  |  |  |  |  |  | 
COP(=O)(OC)C(c1cc(C(C)(C)C)c(O)c(C(C)(C)C)c1)c1ccc(N)nc1N (centres undefined) | > 100 | 16.1 | Active | 31 | 0 | > 500 | 0 | > 500 | 0 | > 500 | > 500 | > 500 | > 500 | > 500 | Activity [22]: inactive; Activity [23]: inactive
CC(C)OP(=O)(OC(C)C)C(c1cc(C(C)(C)C)c(O)c(C(C)(C)C)c1)c1ccc(N)cc1N (centres undefined) |  |  | Active |  |  | > 500 |  | > 500 |  | > 500 | > 500 | > 500 | > 500 | > 500 | 
